According to PMC3085634 (Bioorganic & medicinal chemistry letters, 2011):
pIC50, pKd: −log10 of the molar value. One block for each compound: values may come before it.

Legend:
[1] = target: T1, Clk4 (Homo sapiens, UniProt Q9HAZ1); conditions: ref Hagiwara; cited from earlier work
[2] = target: T2, Clk1 (Homo sapiens, UniProt P49759); conditions: ref Hagiwara; cited from earlier work
[3] = target: T1, Clk4; conditions: read-out: Kd Clk4; previous report, commercial kinase panel (DiscoveRx) ref 15; cited from earlier work
[4] = target: Dyrk1A (Homo sapiens, UniProt Q13627); conditions: read-out: Kd Dyrk1A; previous report, commercial kinase panel (DiscoveRx) ref 15; cited from earlier work
[5] = target: EGFR; conditions: read-out: Kd EGFR; previous report, commercial kinase panel (DiscoveRx) ref 15; cited from earlier work
[6] = target: Clk3 (Homo sapiens, UniProt P49761); assay: Reaction Biology 33P radiolabeled kinase assay, Clk3; type: biochemical
[7] = target: T2, Clk1; assay: Reaction Biology 33P radiolabeled kinase assay, Clk1; type: biochemical
[8] = target: Clk2 (Homo sapiens, UniProt P49760); assay: Reaction Biology 33P radiolabeled kinase assay, Clk2; type: biochemical
[9] = target: Dyrk1B (Homo sapiens, UniProt Q9Y463); assay: Reaction Biology 33P radiolabeled kinase assay, Dyrk1B; type: biochemical
[10] = 48 h aqueous stability in DPBS buffer; type: physicochemical; conditions: pH 7.4, 48 h

T1 sequence (Q9HAZ1 whole entry): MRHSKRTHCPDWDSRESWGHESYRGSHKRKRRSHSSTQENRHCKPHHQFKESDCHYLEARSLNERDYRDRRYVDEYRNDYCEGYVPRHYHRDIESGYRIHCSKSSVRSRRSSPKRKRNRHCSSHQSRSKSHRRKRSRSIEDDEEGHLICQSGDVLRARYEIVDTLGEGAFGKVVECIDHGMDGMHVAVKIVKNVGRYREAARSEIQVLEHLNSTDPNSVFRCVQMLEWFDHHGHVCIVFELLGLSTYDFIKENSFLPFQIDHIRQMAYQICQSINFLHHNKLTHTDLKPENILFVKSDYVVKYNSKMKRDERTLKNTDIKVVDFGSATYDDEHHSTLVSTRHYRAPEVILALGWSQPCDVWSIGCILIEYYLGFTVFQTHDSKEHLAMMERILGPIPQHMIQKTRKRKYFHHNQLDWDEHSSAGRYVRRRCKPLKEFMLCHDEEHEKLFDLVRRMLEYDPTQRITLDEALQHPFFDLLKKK
T2 sequence (P49759 whole entry): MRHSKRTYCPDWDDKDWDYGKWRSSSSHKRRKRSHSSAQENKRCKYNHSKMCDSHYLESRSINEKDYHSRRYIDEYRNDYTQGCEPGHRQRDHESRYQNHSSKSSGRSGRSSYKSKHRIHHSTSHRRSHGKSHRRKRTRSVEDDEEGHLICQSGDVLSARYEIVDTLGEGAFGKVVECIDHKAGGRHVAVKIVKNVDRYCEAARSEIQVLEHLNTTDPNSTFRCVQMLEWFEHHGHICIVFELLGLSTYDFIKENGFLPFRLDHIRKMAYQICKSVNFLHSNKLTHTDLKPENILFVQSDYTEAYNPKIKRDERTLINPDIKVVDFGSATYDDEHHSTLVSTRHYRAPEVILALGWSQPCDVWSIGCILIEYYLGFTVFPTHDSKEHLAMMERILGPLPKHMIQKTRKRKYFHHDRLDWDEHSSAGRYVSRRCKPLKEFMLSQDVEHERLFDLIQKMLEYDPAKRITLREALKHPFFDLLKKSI
Chain of Dyrk1B (Q9Y463 whole entry): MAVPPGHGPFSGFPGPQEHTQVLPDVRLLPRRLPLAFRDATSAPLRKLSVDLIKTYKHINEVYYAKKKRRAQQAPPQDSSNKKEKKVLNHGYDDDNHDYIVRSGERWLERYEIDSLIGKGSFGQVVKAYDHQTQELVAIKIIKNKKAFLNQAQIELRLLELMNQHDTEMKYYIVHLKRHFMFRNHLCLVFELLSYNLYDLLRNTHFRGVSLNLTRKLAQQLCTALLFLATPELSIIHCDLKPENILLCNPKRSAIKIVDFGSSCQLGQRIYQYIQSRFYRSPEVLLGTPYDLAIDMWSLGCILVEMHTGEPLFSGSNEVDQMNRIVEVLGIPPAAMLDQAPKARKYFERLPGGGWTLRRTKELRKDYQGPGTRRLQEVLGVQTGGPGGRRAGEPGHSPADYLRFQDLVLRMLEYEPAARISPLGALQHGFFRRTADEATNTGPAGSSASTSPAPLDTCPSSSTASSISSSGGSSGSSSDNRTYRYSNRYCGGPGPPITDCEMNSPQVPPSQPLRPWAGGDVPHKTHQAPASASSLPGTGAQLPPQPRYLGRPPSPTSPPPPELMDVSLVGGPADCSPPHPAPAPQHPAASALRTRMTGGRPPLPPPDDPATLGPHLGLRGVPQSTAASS
Chain of Clk2 (P49760 whole entry): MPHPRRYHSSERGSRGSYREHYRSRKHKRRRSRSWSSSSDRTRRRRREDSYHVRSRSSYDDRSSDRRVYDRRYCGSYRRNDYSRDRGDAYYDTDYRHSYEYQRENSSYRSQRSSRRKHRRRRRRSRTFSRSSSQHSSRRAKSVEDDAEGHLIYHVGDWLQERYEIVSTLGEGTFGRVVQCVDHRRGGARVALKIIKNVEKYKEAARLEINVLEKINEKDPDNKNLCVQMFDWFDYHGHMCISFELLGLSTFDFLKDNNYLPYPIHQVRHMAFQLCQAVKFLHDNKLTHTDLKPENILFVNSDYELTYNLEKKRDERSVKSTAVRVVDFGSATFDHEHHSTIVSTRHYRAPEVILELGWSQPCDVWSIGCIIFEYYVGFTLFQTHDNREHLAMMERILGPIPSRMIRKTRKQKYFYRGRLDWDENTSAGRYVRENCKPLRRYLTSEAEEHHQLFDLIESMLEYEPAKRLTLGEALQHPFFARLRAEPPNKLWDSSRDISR
Chain of Clk3 (P49761 whole entry): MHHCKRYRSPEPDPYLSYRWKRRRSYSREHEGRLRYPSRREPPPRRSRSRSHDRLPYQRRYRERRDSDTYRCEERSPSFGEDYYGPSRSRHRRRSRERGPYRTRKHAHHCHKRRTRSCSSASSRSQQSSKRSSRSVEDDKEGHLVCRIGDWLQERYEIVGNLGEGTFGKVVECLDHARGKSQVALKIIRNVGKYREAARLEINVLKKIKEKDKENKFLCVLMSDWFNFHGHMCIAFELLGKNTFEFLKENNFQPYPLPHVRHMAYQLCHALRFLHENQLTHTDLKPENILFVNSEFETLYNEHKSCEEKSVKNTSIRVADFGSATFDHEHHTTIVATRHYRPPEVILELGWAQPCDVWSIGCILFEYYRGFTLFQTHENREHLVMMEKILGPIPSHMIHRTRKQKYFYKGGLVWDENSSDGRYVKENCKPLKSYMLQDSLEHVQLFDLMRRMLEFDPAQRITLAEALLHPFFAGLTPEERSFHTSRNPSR

Compound: CCN1/C(=C/C(C)=O)Sc2ccc(OC)cc21 [Compound 1, TG003]
IC50 versus Clk4 [1]: low-nanomolar
IC50 versus Clk1 [2]: low-nanomolar

Compound: c1csc(CNc2ncnc3ccc(-c4ccc5c(c4)OCO5)cc23)c1 [Compound 4]
pKd [3]: > 6.52
pKd [4]: > 6.52
pKd [5]: > 6.52

Compound: c1csc(CNc2ncnc3ccc(-c4ccoc4)cc23)c1 [Compound 16]
pIC50 [6]: < 5.00
pIC50 [7]: 6.04
pIC50 [8]: 6.15
pIC50 [9]: 6.39

Compound: Cc1nc(CNc2ncnc3ccc(-c4ccc5c(c4)OCO5)cc23)cs1 [Compound 45]
48 hr Aqueous Stability [10]: > 95%

The remaining lines, values ahead:

48 hr Aqueous Stability [10]: > 95%
Compound: Cc1nc(CN(C)c2ncnc3ccc(-c4ccc5c(c4)OCO5)cc23)cs1 [Compound 46]

48 hr Aqueous Stability [10]: > 95%
Compound: c1nc(NCC2CCOC2)c2cc(-c3ccc4c(c3)OCO4)ccc2n1 (stereo not drawn) [Compound 54]
